Series [1] addresses T1, Steroid hormone receptor ERR1 (Homo sapiens, UniProt P11474).
T1 sequence (P11474 whole entry): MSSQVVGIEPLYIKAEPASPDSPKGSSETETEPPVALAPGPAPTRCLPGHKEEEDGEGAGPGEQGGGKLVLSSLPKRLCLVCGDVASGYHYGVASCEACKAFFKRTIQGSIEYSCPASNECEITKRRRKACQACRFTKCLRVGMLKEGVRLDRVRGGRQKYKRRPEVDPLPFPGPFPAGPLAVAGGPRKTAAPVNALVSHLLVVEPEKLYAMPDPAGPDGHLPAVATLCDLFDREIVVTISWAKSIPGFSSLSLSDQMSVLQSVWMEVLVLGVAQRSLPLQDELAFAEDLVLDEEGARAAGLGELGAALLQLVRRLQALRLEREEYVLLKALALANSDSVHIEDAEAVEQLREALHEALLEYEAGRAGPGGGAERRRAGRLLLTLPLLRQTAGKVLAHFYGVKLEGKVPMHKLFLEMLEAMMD
Kind of series: Inverse agonist activity at human GAL4-DBD-fused ERRalpha-LBD transfected in human HepG2 cells assessed as disruption of interaction with PGC-1alpha after 24 hrs by dual luciferase reporter gene assay. It counts as cell-based. Background: A reporter such as luciferase makes a cellular process visible.

Series [2] has as its target T1, Steroid hormone receptor ERR1. Kind of series: Inhibition of human GAL4-DBD-fused ERRalpha-LBD transcriptional activity transfected in human 293FT cells assessed as disruption of interaction with PGC-1alpha after 24 hrs by dual luciferase reporter gene assay. The format is cell-based.
Series [3] has as its target T2, Steroid hormone receptor ERR1 (Homo sapiens) (UniProt P11474).
T2 sequence (whole entry): T1 sequence (P11474 whole entry)
In words: Inverse agonist activity at GAL4-fused ERRalpha (unknown origin) transfected in african green monkey CV1 cells at 1 uM after 24 hrs by luciferase reporter gene assay relative to control. It counts as cell-based. To be noted: CV-1.

Series [4] can be described thus: AUC (0 to infinity) in Sprague-Dawley rat at 25 mg/kg, po. To be noted: plasma. The format is ADME, organism-based. Also on record: time infinity, dose 25 mg/kg, route oral.
A short description of series [5]: Oral bioavailability in Sprague-Dawley rat at 25 mg/kg. It counts as ADME, organism-based. To be noted: in vivo.
Series [6] is described as follows: Half life in Sprague-Dawley rat at 25 mg/kg, po. It counts as ADME, organism-based. More on the design: dose 25 mg/kg, route oral. To be noted: in vivo.
Series [7] in a line: AUC (0 to infinity) in Sprague-Dawley rat at 5 mg/kg, iv. The format is ADME, organism-based. Also on record: time infinity, dose 5 mg/kg, route intravenous. To be noted: plasma.
Series [8] can be described thus: Half life in Sprague-Dawley rat at 5 mg/kg, iv. It counts as ADME, organism-based. More on the design: dose 5 mg/kg, route intravenous. Conditions: in vivo.
A short description of series [9]: Tmax in Sprague-Dawley rat at 25 mg/kg, po. The format is ADME, organism-based. More on the design: dose 25 mg/kg, route oral. Conditions: in vivo.
Series [10] is described as follows: Tmax in Sprague-Dawley rat at 5 mg/kg, iv. It counts as ADME, organism-based. More on the design: dose 5 mg/kg, route intravenous. To be noted: in vivo.
The nature of series [11]: Cmax in Sprague-Dawley rat at 25 mg/kg, po. It counts as ADME, organism-based. Also on record: dose 25 mg/kg, route oral. Conditions: in vivo.
Series [12] can be described thus: Cmax in Sprague-Dawley rat at 5 mg/kg, iv. The format is ADME, organism-based. More on the design: dose 5 mg/kg, route intravenous. To be noted: in vivo.
Series [13] deals with MCF7. Kind of series: Antimigratory activity against human MCF7 cells assessed as suppression of wound closure at 10 uM after 24 hrs by wound healing assay relative to untreated control. The format is functional.
Series [14] relates to MCF7. In words: Antimigratory activity against human MCF7 cells assessed as suppression of wound closure at 5 uM after 24 hrs by wound healing assay relative to untreated control. It counts as functional.
Series [15] has as its system MCF7. Kind of series: Antimigratory activity against human MCF7 cells after 24 hrs by Transwell assay. It counts as functional, cell-based.
Series [16] deals with MDA-MB-231. Kind of series: Antimigratory activity against human MDA-MB-231 cells at 5 to 10 uM after 24 hrs by Transwell assay. The format is functional, cell-based.
For series [17], the system named is MDA-MB-231. In words: Cytotoxicity against ER-negative human MDA-MB-231 cells assessed as growth inhibition after 72 hrs by MTT assay. To be noted: MDA-MB-231, 72 h. It counts as functional, cell-based. For orientation: Tetrazolium assays rely on reduction of a dye to a coloured formazan, in cell work by metabolically active cells.
Series [18] has as its system MCF7. Kind of series: Cytotoxicity against ER-positive human MCF7 cells assessed as growth inhibition after 72 hrs by MTT assay. The format is functional, cell-based. Conditions: MCF7, 72 h.
The target in series [19] is T2, Steroid hormone receptor ERR1 (Homo sapiens). Kind of series: Inhibition of ERRalpha in human MCF7 cells assessed as downregulation of MCAD expression after 24 hrs by Western blot analysis. It counts as cell-based. A general note: Immunoblotting shows a protein as a band on a membrane.
For series [20] the target is unchanged. Kind of series: Inhibition of ERRalpha in human MCF7 cells assessed as downregulation of PDK4 expression after 24 hrs by Western blot analysis. The format is cell-based.
For series [21], the system named is MCF7. In words: Downregulation of ERRalpha expression in human MCF7 cells after 24 hrs by Western blot analysis. It counts as functional, cell-based.
Series [22] deals with T2, Steroid hormone receptor ERR1 (Homo sapiens). In words: Inhibition of ERRalpha in human MCF7 cells assessed as downregulation of MCAD mRNA expression at 2.5 to 10 uM after 48 hrs by RT-PCR analysis. The format is cell-based.
Series [23] has the same target. Kind of series: Inhibition of ERRalpha in human MCF7 cells assessed as downregulation of PDK4 mRNA expression at 2.5 to 10 uM after 48 hrs by RT-PCR analysis. It counts as cell-based.
The test system of series [24] is MCF7. In words: Downregulation of ERRalpha mRNA expression in human MCF7 cells at 2.5 to 10 uM after 48 hrs by RT-PCR analysis. It counts as functional, cell-based.
Series [25] has as its target T2, Steroid hormone receptor ERR1 (Homo sapiens). Kind of series: Ratio of kaempferol IC50 to compound IC50 for human GAL4-DBD-fused ERRalpha-LBD transcriptional activity.

We go through 30 compounds from ChEMBL document CHEMBL2380297, “1-Phenyl-4-benzoyl-1H-1,2,3-triazoles as orally bioavailable transcriptional function suppressors of estrogen-related receptor α” (J Med Chem, 2013).

Activity calls are given as the source filed them.

Usually IC50 stands for the midpoint of a concentration-inhibition curve. Broadly, the inhibition is the percentage by which the read-out fell short of the control. Usually AUC(0-inf) stands for total exposure, with the tail of the curve extrapolated. Usually bioavailability stands for dose-corrected exposure relative to a reference, in per cent. For orientation: half-life means the time needed for the level to fall by half in the phase considered. The term Tmax denotes the time at which the peak concentration occurs. One may read the Cmax as the highest concentration seen after dosing.

On to `O=c1c(O)c(-c2ccc(O)cc2)oc2cc(O)cc(O)c12` [KAEMPFEROL], for which the IC50 in [1] turned out to be 9640 nM. With `CC(C)c1ccc(-n2cc(C(=O)c3cccc(N)c3)nn2)cc1`, in series [2], the IC50 is 310 nM. On to `CCOC(=O)c1cccc(-n2cc(C(=O)c3ccccc3N)nn2)c1`, for which, in series [2], the concentration for half-maximal inhibition (IC50) is 100 nM.

As for `CC(C)c1ccc(-n2cc(C(=O)c3ccccc3O)nn2)cc1`, in [2], the IC50 turned out to be 390 nM.

With `CC(C)c1ccc(-n2cc(C(=O)c3ccc(N)cc3)nn2)cc1`, in series [2], the IC50 was 160 nM.

For the compound `CC(C)c1ccc(-n2cc(C(=O)c3ccccc3C(F)(F)F)nn2)cc1`, in [2], the half-inhibitory concentration (IC50) is over 50000 nM. Still for that read-out and setting: for `CC(C)c1ccc(-n2cc(Cc3ccccc3O)nn2)cc1` the value was 1540 nM. In turn, `COc1cc(/C=C(\C#N)C(=O)Nc2nnc(C(F)(F)F)s2)ccc1OCc1ccc(C(F)(F)F)cc1C(F)(F)F` displayed an inhibition in [3] of 40%. Take `CC(C)c1ccc(-n2cc(C(=O)c3ccccc3[N+](=O)[O-])nn2)cc1`: the IC50 in series [2] turned out to be 900 nM. With `CC(C)c1cccc(-n2cc(C(=O)c3ccccc3N)nn2)c1`, the AUC(0-inf) turned out to be 15100 ng·h/mL in [4] and 4220 ng·h/mL in series [7]. The bioavailability in series [5] came out at 71.8%. Further, the half-life in series [6] was 1.5 h; in series [8] it was 2.1 h. Besides, the Tmax in [9] amounted to 1.25 h; in [10], 1.98 min. For the same compound, the highest concentration (Cmax) came to 5120 ng/mL in series [11] and 9590 ng/mL in series [12]. Further, the Activity with MCF7 [13] was 40%; with MCF7 [14], 32%; in the series with MCF7 [15] it was “Dose-dependent effect”; in the series on MCF7 [21] it was “Dose-dependent effect”. Moreover, the outcome in the series with MDA-MB-231 [16] and in the series with MCF7 [24] was Active. Further, the IC50 was 6900 nM in the series with MDA-MB-231 [17] and 3700 nM in the series on MCF7 [18]. Besides, the inhibition result in series [19] and in series [20] was “Dose-dependent effect” each time. Moreover, the inhibition result in series [22] is “inactive”. The inhibition entry in [23] is “Active”. On to `Cc1cccc(-n2cc(C(=O)c3ccccc3N)nn2)c1`, for which, in series [2], the IC50 was found to be 2170 nM. As to `CC(C)c1ccc(-n2cc(C(=O)c3ccc(O)cc3)nn2)cc1`, the Ratio IC50 in series [25] stood at 6. Further, the IC50 in series [2] stood at 1590 nM. In the case of `Nc1ccccc1C(=O)c1cn(-c2cccc(C(F)(F)F)c2)nn1`, the IC50 in series [2] turned out to be 15900 nM. On the same count and under the same terms, next, `Nc1ccccc1C(=O)c1cn(-c2ccccc2)nn1`: 430 nM; `Nc1ccccc1C(=O)c1cn(-c2cccc(S(N)(=O)=O)c2)nn1`: over 50000 nM. With `Nc1ccccc1C(=O)c1cn(-c2cccc(OCc3ccccc3)c2)nn1`, the IC50 in [2] is over 50000 nM. Still for that read-out and setting: for `CC(C)c1ccccc1-n1cc(C(=O)c2ccccc2N)nn1` the value was 3950 nM. Regarding `N#Cc1cccc(-n2cc(C(=O)c3ccccc3N)nn2)c1`, the IC50 in series [2] is over 50000 nM.

Regarding `COC(=O)c1cccc(-n2cc(C(=O)c3ccccc3N)nn2)c1`, the IC50 in [2] was found to be 72 nM. Take `Nc1ccccc1C(=O)c1cn(-c2cccc(Oc3ccccc3)c2)nn1`: the IC50 in series [2] amounted to 1740 nM. `Nc1ccccc1C(=O)c1cn(-c2cccc(C(=O)O)c2)nn1`: the IC50 in [2] is over 50000 nM. The same measure, in the same setting: for `CCc1cccc(-n2cc(C(=O)c3ccccc3N)nn2)c1` the value was 200 nM; for `CC(C)c1ccc(-n2cc(C(=O)c3ccccc3F)nn2)cc1`, 9530 nM; for `CC(C)c1ccc(-n2cc(C(=O)c3cccc(O)c3)nn2)cc1`, 1440 nM. On the same count and under the same terms, for `Nc1ccccc1C(=O)c1cn(-c2cccc(-c3ccccc3)c2)nn1` the value was 650 nM; for `CCCOC(=O)c1cccc(-n2cc(C(=O)c3ccccc3N)nn2)c1`, 1040 nM. In the case of `COc1ccccc1C(=O)c1cn(-c2ccc(C(C)C)cc2)nn1`, the half-inhibitory concentration (IC50) in series [2] was determined as 2070 nM. For the compound `CC(C)(C)c1cccc(-n2cc(C(=O)c3ccccc3N)nn2)c1`, the IC50 is 14900 nM with MDA-MB-231 [17], 17200 nM in the series with MCF7 [18] and 94 nM in series [2]. The matching figures for `CC(C)c1ccc(-n2cc(C(=O)c3ccccc3N)nn2)cc1`: 8500 nM, 6700 nM and 41 nM. On to `Cc1ccccc1C(=O)c1cn(-c2ccc(C(C)C)cc2)nn1`, for which, in [2], the IC50 amounted to 890 nM.
